{"source": "EPA's ToxValDB 9.5 (doi:10.2903/j.efsa.2009.1350)", "key": {"Anas platyrhynchos": {"test_system": "Anas platyrhynchos", "settings": "for NOEC: reproductive"}, "Apis mellifera": {"test_system": "Apis mellifera", "settings": "acute; duration: 48 hours; oral; unspecified; mortality"}, "Bibionidae": {"test_system": "Bibionidae", "settings": "chronic/long-term; duration: 28 days"}, "Canidae": {"test_system": "Canidae", "settings": "subchronic; duration: 90 days; oral; diet; Dog Other; clinical signs"}, "Cyprinodon variegatus": {"test_system": "Cyprinodon variegatus", "settings": "mortality"}, "Daphnia magna": {"test_system": "Daphnia magna", "settings": "chronic/long-term; duration: 21 days; reproduction"}, "Lolium perenne": {"test_system": "Lolium perenne", "settings": "acute; duration: 21 days; other"}, "Neomysis kadiakensis": {"test_system": "Neomysis kadiakensis", "settings": "chronic/long-term; duration: 28 days; reproduction"}, "Rattus norvegicus": {"test_system": "Rattus norvegicus", "settings": "for LD50: acute; for NOAEL: histopathology: nonneoplastic"}, "Typhlodromus pyri": {"test_system": "Typhlodromus pyri", "test": "LR50; higher = less toxic", "settings": "acute; duration: 7 days; mortality"}}, "data": [{"smiles": "CCCOc1nc2ccc(I)cc2c(=O)n1CCC", "note": "[Proquinazid]", "values": [{"measurement": "NOEC", "setting": "Anas platyrhynchos; F", "result": 29.6, "unit": "mg/kg-day"}, {"measurement": "NOEC", "setting": "Anas platyrhynchos; M", "result": 31.5, "unit": "mg/kg-day"}, {"measurement": "LC50", "setting": "Anas platyrhynchos; short-term, oral, feed, mortality", "result": 3110, "unit": "mg/kg-day"}, {"measurement": "LD50", "setting": "Apis mellifera", "result": "> 125", "unit": "µg/piece"}, {"measurement": "NOEC", "setting": "Bibionidae", "result": 0.465, "unit": "mg/L"}, {"measurement": "NOAEL", "setting": "Canidae", "result": 19, "unit": "mg/kg-day"}, {"measurement": "LC50", "setting": "Colinus virginianus; acute, oral, diet, mortality", "result": 1370, "unit": "mg/kg-day"}, {"measurement": "LD50", "setting": "Colinus virginianus; acute, oral, mortality", "result": "> 2250", "unit": "mg/kg-day"}, {"measurement": "NOEC", "setting": "Colinus virginianus; reproduction developmental", "result": 7.78, "unit": "mg/kg-day"}, {"measurement": "LC50", "setting": "Cyprinodon variegatus; acute, duration: 96 hours", "result": "> 0.58", "unit": "µg/mL"}, {"measurement": "NOEC", "setting": "Cyprinodon variegatus; chronic/long-term, duration: 36 days", "result": 0.00872, "unit": "mg/L"}, {"measurement": "NOEC", "setting": "Daphnia magna", "result": 0.0018, "unit": "mg/L"}, {"measurement": "LEL", "setting": "Lolium perenne", "result": 75, "unit": "g/ha"}, {"measurement": "NOEC", "setting": "Neomysis kadiakensis", "result": 0.0105, "unit": "mg/L"}, {"measurement": "LC50", "setting": "Oncorhynchus mykiss; acute, duration: 96 hours, mortality", "result": 0.349, "unit": "µg/mL"}, {"measurement": "NOEC", "setting": "Oncorhynchus mykiss; chronic/long-term, duration: 90 days, other", "result": 0.003, "unit": "mg/L"}, {"measurement": "LD50", "setting": "Rattus norvegicus; oral, mortality", "result": 4850, "unit": "mg/kg-day"}, {"measurement": "NOAEL", "setting": "Rattus norvegicus; chronic, duration: 2 years", "result": 1.2, "unit": "mg/kg-day"}, {"measurement": "NOEL", "setting": "Rattus norvegicus; chronic, mortality", "result": "> 600", "unit": "mg/kg-day"}, {"measurement": "NOEL", "setting": "Rattus norvegicus; reproduction developmental, reproduction", "result": 35.1, "unit": "mg/kg-day"}, {"measurement": "NOAEL", "setting": "Rattus norvegicus; subchronic, duration: 90 days, oral, diet", "result": 2, "unit": "mg/kg-day"}, {"measurement": "LC50", "setting": "Tagia sp.; acute, duration: 14 days, mortality", "result": "> 1000", "unit": "mg/kg"}, {"measurement": "NOEC", "setting": "Tagia sp.; chronic/long-term, duration: 56 days", "result": "> 50.9", "unit": "mg/kg"}, {"measurement": "LR50", "setting": "Typhlodromus pyri", "result": 47.9, "unit": "g/ha"}]}, {"smiles": "CCCOc1nc2ccccc2c(=O)n1CCC", "note": "[2-Propoxy-3-propyl-4(3H)-quinazolinone]", "values": [{"measurement": "LD50", "setting": "Rattus norvegicus; oral, mortality", "result": 2050, "unit": "mg/kg-day"}]}]}
